Measured values reported in ChEMBL document CHEMBL1149685, “Novel tethers in ketolide antibiotics” (2007).
≈ marks a conversion by molar mass, not a printed value. Calls of active or inactive are those of the source. No cut-off for these calls is given here.

Assays:
Type in all cases: functional
Haemophilus influenzae [1] = assay: Antimicrobial activity against Haemophilus influenzae 1325
Streptococcus pneumoniae [2] = assay: Antibacterial activity against erythromycin-resistant ermB expressing Streptococcus pneumoniae 1095
Streptococcus pneumoniae [3] = assay: Antibacterial activity against erythromycin-resistant mef expressing Streptococcus pneumoniae 1175
Streptococcus pyogenes [4] = assay: Antibacterial activity against erythromycin-resistant ermB expressing Streptococcus pyogenes 1079
Haemophilus influenzae [5] = assay: Antibacterial activity against Haemophilus influenzae 1100 in po dosed gerbils
Streptococcus pneumoniae [6] = assay: Protection against erythromycin-resistant Streptococcus pneumoniae 1095 infection in po dosed mouse after 4 days
Streptococcus pyogenes [7] = assay: Antibacterial activity against erythromycin-resistant Streptococcus pyogenes 1068 in mouse soft tissue infection model assessed as reduction in bacterial count at 100 mg/kg, po after 24 hrs
[8] = Streptococcus pneumoniae, read-out: MIC

Compound	MIC (Haemophilus influenzae [1]) [µg/mL]	MIC (Streptococcus pneumoniae [2]; [8]) [µg/mL]	MIC (Streptococcus pneumoniae [3]) [µg/mL]	MIC (Streptococcus pyogenes [4]) [µg/mL]	ED50 (Haemophilus influenzae [5]) [mg/kg]	PD50 (Streptococcus pneumoniae [6]) [mg/kg]	Log10 cfu (Streptococcus pyogenes [7])	Activity (Streptococcus pyogenes [7])	MIC (Streptococcus pneumoniae [2]) [µg/mL]
CC[C@H]1OC(=O)[C@@](C)(F)C(=O)[C@H](C)[C@@H](O[C@@H]2O[C@H](C)C[C@H](N(C)C)[C@H]2O)[C@](C)(OC)C[C@@H](C)C(=O)[C@H](C)[C@H]2N(CNC(=O)NCc3ccc4nccnc4c3)C(=O)O[C@]12C	1 (≈ 1.18 µM)	< 0.063	< 0.063	1 (≈ 1.18 µM)	–	–	–	–	–
CC[C@H]1OC(=O)[C@H](C)C(=O)[C@H](C)[C@@H](O[C@@H]2O[C@H](C)C[C@H](N(C)C)[C@H]2O)[C@](C)(OC)C[C@@H](C)C(=O)[C@H](C)[C@H]2N(CNC(=O)OCc3ccc4ncccc4c3)C(=O)O[C@]12C	2 (≈ 2.42 µM)	0.25 (≈ 0.302 µM)	< 0.063	8 (≈ 9.67 µM)	–	–	–	–	–
CC[C@H]1OC(=O)[C@@](C)(F)C(=O)[C@H](C)[C@@H](O[C@@H]2O[C@H](C)C[C@H](N(C)C)[C@H]2O)[C@](C)(OC)C[C@@H](C)C(=O)[C@H](C)[C@H]2N(CNC(=O)OCc3ccc4nccnc4c3)C(=O)O[C@]12C	2 (≈ 2.36 µM)	< 0.063	< 0.063	1 (≈ 1.18 µM)	39.5	71.2	2.3	–	–
CC[C@H]1OC(=O)[C@H](C)C(=O)[C@H](C)[C@@H](O[C@@H]2O[C@H](C)C[C@H](N(C)C)[C@H]2O)[C@](C)(OC)C[C@@H](C)C(=O)[C@H](C)[C@H]2N(CNC(=O)OCc3ccnc4ccccc34)C(=O)O[C@]12C	8 (≈ 9.67 µM)	0.5 (≈ 0.605 µM)	< 0.063	64 (≈ 77.4 µM)	–	–	–	–	–
CC[C@H]1OC(=O)[C@H](C)C(=O)[C@H](C)[C@@H](O[C@@H]2O[C@H](C)C[C@H](N(C)C)[C@H]2O)[C@](C)(OC)C[C@@H](C)C(=O)[C@H](C)[C@H]2N(CNC(=O)NCc3ccc4nccnc4c3)C(=O)O[C@]12C	2 (≈ 2.42 µM)	< 0.063	0.25 (≈ 0.302 µM)	2 (≈ 2.42 µM)	–	–	–	–	–
CC[C@H]1OC(=O)[C@H](C)C(=O)[C@H](C)[C@@H](O[C@@H]2O[C@H](C)C[C@H](N(C)C)[C@H]2O)[C@](C)(OC)C[C@@H](C)C(=O)[C@H](C)[C@H]2N(CNC(=O)NCc3cnc4ccccc4n3)C(=O)O[C@]12C	4 (≈ 4.84 µM)	< 0.063	0.25 (≈ 0.302 µM)	> 64	–	–	–	–	–
CC[C@H]1OC(=O)[C@H](C)C(=O)[C@H](C)[C@@H](O[C@@H]2O[C@H](C)C[C@H](N(C)C)[C@H]2O)[C@](C)(OC)C[C@@H](C)C(=O)[C@H](C)[C@H]2N(CCCCn3cnc(-c4cccnc4)c3)C(=O)O[C@]12C [TELITHROMYCIN]	3.9 (≈ 4.8 µM)	< 0.063	0.378 (≈ 0.466 µM)	18 (≈ 22.2 µM)	27.5	71.5	–	inactive	–
CC[C@H]1OC(=O)[C@H](C)C(=O)[C@H](C)[C@@H](O[C@@H]2O[C@H](C)C[C@H](N(C)C)[C@H]2O)[C@](C)(OC)C[C@@H](C)C(=O)[C@H](C)[C@H]2N(CCNC(=O)OCc3cnc4ccccc4c3)C(=O)O[C@]12C	32 (≈ 38 µM)	–	0.125 (≈ 0.149 µM)	> 64	–	–	–	–	> 64
CC[C@H]1OC(=O)[C@H](C)C(=O)[C@H](C)[C@@H](O[C@@H]2O[C@H](C)C[C@H](N(C)C)[C@H]2O)[C@](C)(OC)C[C@@H](C)C(=O)[C@H](C)[C@H]2N(CNC(=O)OCc3cnc4ccccc4n3)C(=O)O[C@]12C	8 (≈ 9.66 µM)	0.25 (≈ 0.302 µM)	0.25 (≈ 0.302 µM)	> 64	–	–	–	–	–
CC[C@H]1OC(=O)[C@H](C)C(=O)[C@H](C)[C@@H](O[C@@H]2O[C@H](C)C[C@H](N(C)C)[C@H]2O)[C@](C)(OC)C[C@@H](C)C(=O)[C@H](C)[C@H]2N(CNC(=O)OCc3cccc4ncccc34)C(=O)O[C@]12C	32 (≈ 38.7 µM)	0.125 (≈ 0.151 µM)	0.125 (≈ 0.151 µM)	16 (≈ 19.3 µM)	–	–	–	–	–
CC[C@H]1OC(=O)[C@H](C)C(=O)[C@H](C)[C@@H](O[C@@H]2O[C@H](C)C[C@H](NC)[C@H]2O)[C@](C)(OC)C[C@@H](C)C(=O)[C@H](C)[C@H]2N(CNC(=O)OCc3cnc4ccccc4c3)C(=O)O[C@]12C	8 (≈ 9.84 µM)	< 0.063	< 0.063	64 (≈ 78.7 µM)	–	–	–	–	–
CC[C@H]1OC(=O)[C@H](C)C(=O)[C@H](C)[C@@H](O[C@@H]2O[C@H](C)C[C@H](N(C)C)[C@H]2O)[C@](C)(OC)C[C@@H](C)C(=O)[C@H](C)[C@H]2N(CNC(=O)OCc3ccc4cccnc4c3)C(=O)O[C@]12C	4 (≈ 4.84 µM)	< 0.063	< 0.063	64 (≈ 77.4 µM)	–	–	–	–	–
CC[C@H]1OC(=O)[C@H](C)C(=O)[C@H](C)[C@@H](O[C@@H]2O[C@H](C)C[C@H](N(C)C)[C@H]2O)[C@](C)(OC)C[C@@H](C)C(=O)[C@H](C)[C@H]2N(CNC(=O)NCc3ccc4ncccc4c3)C(=O)O[C@]12C	1 (≈ 1.21 µM)	0.25 (≈ 0.303 µM)	0.125 (≈ 0.151 µM)	4 (≈ 4.84 µM)	–	–	–	–	–
CC[C@H]1OC(=O)[C@H](C)C(=O)[C@H](C)[C@@H](O[C@@H]2O[C@H](C)C[C@H](N(C)C)[C@H]2O)[C@](C)(OC)C[C@@H](C)C(=O)[C@H](C)[C@H]2N(CNC(=O)NCc3ccc4cccnc4c3)C(=O)O[C@]12C	4 (≈ 4.84 µM)	< 0.063	0.5 (≈ 0.605 µM)	64 (≈ 77.5 µM)	–	–	–	–	–
CC[C@H]1OC(=O)[C@H](C)C(=O)[C@H](C)[C@@H](O[C@@H]2O[C@H](C)C[C@H](N(C)C)[C@H]2O)[C@](C)(OC)C[C@@H](C)C(=O)[C@H](C)[C@H]2N(CNC(=O)Nc3cnc4ccccc4c3)C(=O)O[C@]12C	16 (≈ 19.7 µM)	0.25 (≈ 0.308 µM)	< 0.063	> 64	–	–	–	–	–
CC[C@H]1OC(=O)[C@H](C)C(=O)[C@H](C)[C@@H](O[C@@H]2O[C@H](C)C[C@H](N(C)C)[C@H]2O)[C@](C)(OC)C[C@@H](C)C(=O)[C@H](C)[C@H]2N(CNC(=O)OCc3ccc4nccnc4c3)C(=O)O[C@]12C	2 (≈ 2.42 µM)	< 0.063	< 0.063	16 (≈ 19.3 µM)	–	–	–	–	–
CC[C@H]1OC(=O)[C@@](C)(F)C(=O)[C@H](C)[C@@H](O[C@@H]2O[C@H](C)C[C@H](N(C)C)[C@H]2O)[C@](C)(OC)C[C@@H](C)C(=O)[C@H](C)[C@H]2N(CNC(=O)OCc3cccc4nccnc34)C(=O)O[C@]12C	4 (≈ 4.73 µM)	< 0.063	< 0.063	22.6 (≈ 26.7 µM)	–	–	–	–	–
CC[C@H]1OC(=O)[C@H](C)C(=O)[C@H](C)[C@@H](O[C@@H]2O[C@H](C)C[C@H](N(C)C)[C@H]2O)[C@](C)(OC)C[C@@H](C)C(=O)[C@H](C)[C@H]2N(CNC(=O)NCc3cncc4ccccc34)C(=O)O[C@]12C	4 (≈ 4.84 µM)	< 0.063	< 0.063	16 (≈ 19.4 µM)	–	–	–	–	–
CC[C@H]1OC(=O)[C@H](C)C(=O)[C@H](C)[C@@H](O[C@@H]2O[C@H](C)C[C@H](N(C)C)[C@H]2O)[C@](C)(OC)C[C@@H](C)C(=O)[C@H](C)[C@H]2N(CCNC(=O)NCc3cnc4ccccc4c3)C(=O)O[C@]12C	16 (≈ 19 µM)	> 64	0.5 (≈ 0.595 µM)	> 64	–	–	–	–	–
